From patent US8969356B2, “Compounds useful as inhibitors of ATR kinase” (Vertex Pharmaceuticals Incorporated, priority 2010, dated 2015)

Experiments:
[1] = tested on: HCT116 colorectal cancer cells; test: Cisplatin Sensitization Assay (96 h cell viability MTS); assay type: cell-based; conditions: concentration of compound required to reduce the IC50 of Cisplatin alone by at least 3-fold; HCT116, 96 h MTS
Method: Compounds can be screened for their ability to sensitize HCT116 colorectal cancer cells to Cisplatin using a 96 h cell viability (MTS) assay. […] Compounds and Cisplatin are then both added simultaneously to the cell media in 2-fold serial dilutions from a top final concentration of 10 μM as a full matrix of concentrations in a final cell volume of 200 μl, and the cells are then incubated at 37° C. in 5% CO2. After 96 h, 40 μl of MTS reagent (Promega G358a) is added to each well and the cells are incubated for 1 h at 37° C. in 5% CO2.

ATR kinase = biological target: T1, ATR kinase (Homo sapiens, UniProt Q13535); test: ATR Inhibition Assay (radioactive-phosphate incorporation); assay type: biochemical
T1 construct: Assays were carried out at 25° C. in the presence of 5 nM full-length ATR
T1 sequence (Q13535 whole entry): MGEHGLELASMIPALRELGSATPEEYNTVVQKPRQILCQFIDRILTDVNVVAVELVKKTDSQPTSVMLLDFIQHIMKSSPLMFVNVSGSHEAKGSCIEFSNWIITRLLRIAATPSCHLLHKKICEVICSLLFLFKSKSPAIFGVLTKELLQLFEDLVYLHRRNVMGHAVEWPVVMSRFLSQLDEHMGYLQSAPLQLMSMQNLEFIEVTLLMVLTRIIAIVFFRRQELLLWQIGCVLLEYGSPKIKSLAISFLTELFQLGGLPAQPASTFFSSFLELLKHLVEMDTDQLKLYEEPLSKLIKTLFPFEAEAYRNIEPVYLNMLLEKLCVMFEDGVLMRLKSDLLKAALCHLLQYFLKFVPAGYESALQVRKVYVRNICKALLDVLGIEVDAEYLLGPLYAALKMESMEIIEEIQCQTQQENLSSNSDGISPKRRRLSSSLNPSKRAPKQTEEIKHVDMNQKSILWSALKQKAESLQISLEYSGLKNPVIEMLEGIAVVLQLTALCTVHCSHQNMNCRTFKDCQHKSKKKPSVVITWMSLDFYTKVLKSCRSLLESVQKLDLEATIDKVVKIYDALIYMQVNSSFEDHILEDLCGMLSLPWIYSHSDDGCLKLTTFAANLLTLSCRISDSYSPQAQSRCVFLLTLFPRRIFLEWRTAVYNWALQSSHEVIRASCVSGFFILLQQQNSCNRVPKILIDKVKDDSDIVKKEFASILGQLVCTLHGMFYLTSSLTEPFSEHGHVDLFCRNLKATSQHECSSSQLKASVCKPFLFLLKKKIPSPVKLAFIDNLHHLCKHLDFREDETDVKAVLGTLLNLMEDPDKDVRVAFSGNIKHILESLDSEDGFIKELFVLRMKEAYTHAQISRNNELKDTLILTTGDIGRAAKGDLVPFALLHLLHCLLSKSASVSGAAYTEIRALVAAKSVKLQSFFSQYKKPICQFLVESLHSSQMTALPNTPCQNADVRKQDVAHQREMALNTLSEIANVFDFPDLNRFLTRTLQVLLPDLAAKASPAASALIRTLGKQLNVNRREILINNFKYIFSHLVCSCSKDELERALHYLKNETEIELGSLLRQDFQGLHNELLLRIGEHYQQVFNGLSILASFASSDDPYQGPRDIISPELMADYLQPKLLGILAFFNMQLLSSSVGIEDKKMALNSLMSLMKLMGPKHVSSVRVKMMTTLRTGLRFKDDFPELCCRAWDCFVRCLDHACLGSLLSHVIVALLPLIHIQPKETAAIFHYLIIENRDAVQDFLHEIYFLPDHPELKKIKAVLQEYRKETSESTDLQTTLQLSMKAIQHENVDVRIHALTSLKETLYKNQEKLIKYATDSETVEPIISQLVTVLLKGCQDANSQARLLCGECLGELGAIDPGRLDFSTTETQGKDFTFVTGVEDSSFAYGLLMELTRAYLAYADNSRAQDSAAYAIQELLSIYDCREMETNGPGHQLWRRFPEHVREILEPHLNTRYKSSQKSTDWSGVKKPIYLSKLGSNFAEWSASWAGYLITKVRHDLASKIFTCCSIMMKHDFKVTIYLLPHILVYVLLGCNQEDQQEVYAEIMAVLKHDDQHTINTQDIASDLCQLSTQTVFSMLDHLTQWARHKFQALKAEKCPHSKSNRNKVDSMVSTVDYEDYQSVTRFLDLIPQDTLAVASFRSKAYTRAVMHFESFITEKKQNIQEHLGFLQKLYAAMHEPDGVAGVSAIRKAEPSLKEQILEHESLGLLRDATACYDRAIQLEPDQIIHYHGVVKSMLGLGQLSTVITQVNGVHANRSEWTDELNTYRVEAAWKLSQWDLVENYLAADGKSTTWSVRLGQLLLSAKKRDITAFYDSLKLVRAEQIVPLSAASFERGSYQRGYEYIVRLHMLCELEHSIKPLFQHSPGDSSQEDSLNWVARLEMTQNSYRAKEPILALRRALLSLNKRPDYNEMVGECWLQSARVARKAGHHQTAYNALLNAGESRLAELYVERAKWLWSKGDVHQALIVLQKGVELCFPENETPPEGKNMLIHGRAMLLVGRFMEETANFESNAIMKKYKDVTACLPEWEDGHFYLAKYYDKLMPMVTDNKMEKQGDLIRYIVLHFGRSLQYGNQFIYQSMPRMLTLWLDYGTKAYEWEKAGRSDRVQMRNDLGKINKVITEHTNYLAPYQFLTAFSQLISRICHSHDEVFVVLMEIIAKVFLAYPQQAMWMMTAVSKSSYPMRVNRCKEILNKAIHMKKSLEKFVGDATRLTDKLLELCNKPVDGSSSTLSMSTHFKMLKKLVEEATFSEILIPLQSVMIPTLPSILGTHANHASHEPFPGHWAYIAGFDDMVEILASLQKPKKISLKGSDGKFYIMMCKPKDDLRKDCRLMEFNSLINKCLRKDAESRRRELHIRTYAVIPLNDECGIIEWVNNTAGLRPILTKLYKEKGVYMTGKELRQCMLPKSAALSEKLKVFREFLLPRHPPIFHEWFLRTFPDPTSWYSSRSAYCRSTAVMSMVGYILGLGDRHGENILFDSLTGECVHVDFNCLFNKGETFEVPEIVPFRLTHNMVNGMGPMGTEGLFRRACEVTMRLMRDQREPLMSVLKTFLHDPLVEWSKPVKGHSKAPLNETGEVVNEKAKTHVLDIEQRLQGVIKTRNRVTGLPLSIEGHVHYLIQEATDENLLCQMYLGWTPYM
Method: Compounds were screened for their ability to inhibit ATR kinase using a radioactive-phosphate incorporation assay. Assays were carried out in a mixture of 50 mM Tris/HCl (pH 7.5), 10 mM MgCl2 and 1 mM DTT. Final substrate concentrations were 10 μM [γ-33P]ATP (3mCi 33P ATP/mmol ATP, Perkin Elmer) and 800 μM target peptide ([…] (SEQ. ID NO: 1)).
Assays were carried out at 25° C. in the presence of 5 nM full-length ATR. An assay stock buffer solution was prepared containing all of the reagents listed above, with the exception of ATP and the test compound of interest. 13.5 μL of the stock solution was placed in a 96 well plate followed by addition of 2 μL of DMSO stock containing serial dilutions of the test compound (typically starting from a final concentration of 15 μM with 3-fold serial dilutions) in duplicate (final DMSO concentration 7%). The plate was pre-incubated for 10 minutes at 25° C. and the reaction initiated by addition of 15 μL [γ-33P]ATP (final concentration 10 μM).
The reaction was stopped after […] by the addition of 30 μL 0.1M phosphoric acid containing 2 mM ATP. A multiscreen phosphocellulose filter 96-well plate (Millipore, Cat no. MAPHN0B50) was pretreated with 100 μL 0.2M phosphoric acid prior to the addition of 45 μL of the stopped assay mixture. The plate was washed with 5×200 μL 0.2M phosphoric acid. After drying, 100 μL Optiphase ‘SuperMix’ liquid scintillation cocktail (Perkin Elmer) was added to the well prior to scintillation counting (1450 Microbeta Liquid Scintillation Counter, Wallac).
After removing mean background values for all of the data points, Ki(app) data were calculated from non-linear regression analysis of the initial rate data using the Prism software package (GraphPad Prism version 3.0cx for Macintosh, GraphPad Software, San Diego Calif., USA).

Ki (ATR kinase) [nM] | inhibition at 15 µM (ATR kinase; at 15 uM) [%] | SMILES | CP3 Shift [1] [µM]
≤ 100 |  | CC(C)S(=O)(=O)c1ccc(-c2cnc(N)c(C#Cc3ccccc3)n2)cc1 [Compound I-7, 5-(4-Isopropylsulfonylphenyl)-3-(2-phenylethynyl)pyrazin-2-amine] | 2.5
≤ 100 |  | CC(C)S(=O)(=O)c1ccc(-c2cnc(N)c(C#Cc3cccc(N)c3)n2)cc1 [Compound I-21, 3-[2-(3-Aminophenyl)ethynyl]-5-(4-isopropylsulfonylphenyl)pyrazin-2-amine] | 0.312
≤ 100 |  | CC(C)S(=O)(=O)c1ccc(-c2cnc(N)c(C#Cc3cccs3)n2)cc1 [Compound I-22, 5-(4-Isopropylsulfonylphenyl)-3-[2-(2-thienyl)ethynyl]pyrazin-2-amine] | 1.25
≤ 100 |  | CC(C)S(=O)(=O)c1ccc(-c2cnc(N)c(C#Cc3ccccn3)n2)cc1 [Compound I-33, 5-(4-Isopropylsulfonylphenyl)-3-[2-(2-pyridyl)ethynyl]pyrazin-2-amine] | 2.5
≤ 100 |  | Nc1ncc(-c2ccc(S(=O)(=O)C3CCOCC3)cc2)nc1C#Cc1cccc(O)c1 [Compound I-34, 3-[2-[3-Amino-6-(4-tetrahydropyran-4-ylsulfonylphenyl)pyrazin-2-yl]ethynyl]phenol] | 0.079
≤ 100 |  | CC(C)S(=O)(=O)c1ccc(-c2cnc(N)c(C#Cc3cccc(O)c3)n2)cc1 [Compound I-35, 3-[2-[3-Amino-6-(4-isopropylsulfonylphenyl)pyrazin-2-yl]ethynyl]phenol] | 0.118
≤ 100 |  | CC(C)S(=O)(=O)c1ccc(-c2cnc(N)c(C#Cc3cccc(C(N)=O)c3)n2)cc1 [Compound I-37, 3-[2-[3-Amino-6-(4-isopropylsulfonylphenyl)pyrazin-2-yl]ethynyl]benzamide] | 
100 to 1000 |  | CC(C)S(=O)(=O)c1ccc(-c2cnc(N)c(C#Cc3ccccc3N)n2)cc1 [Compound I-38, 3-((2-aminophenyl)ethynyl)-5-(4-(isopropylsulfonyl)phenyl)pyrazin-2-amine] | 
≤ 100 |  | CC(C)S(=O)(=O)c1ccc(-c2cnc(N)c(C#Cc3cncn3C)n2)cc1 [Compound I-39] | 
≤ 100 |  | CC(C)S(=O)(=O)c1ccc(-c2cnc(N)c(C#Cc3ccccc3F)n2)cc1 [Compound I-40, 3-((2-fluorophenyl)ethynyl)-5-(4-(isopropylsulfonyl)phenyl)pyrazin-2-amine] | 2.5
≤ 100 |  | CC(C)S(=O)(=O)c1ccc(-c2cnc(N)c(C#Cc3cccc(N)n3)n2)cc1 [Compound I-41, 3-((6-aminopyridin-2-yl)ethynyl)-5-(4-(isopropylsulfonyl)phenyl)pyrazin-2-amine] | 
≤ 100 |  | CC(C)S(=O)(=O)c1ccc(-c2cnc(N)c(C#Cc3ccc(C(O)CN)cc3)n2)cc1 (centres unmarked) [Compound I-42, 2-amino-1-(4-((3-amino-6-(4-(isopropylsulfonyl)phenyl)pyrazin-2-yl)ethynyl)phenyl)ethanol] | 
≤ 100 |  | CC(C)S(=O)(=O)c1ccc(-c2cnc(N)c(C#Cc3ccccc3N3CCNCC3)n2)cc1 [Compound I-43, 5-(4-(isopropylsulfonyl)phenyl)-3-((2-(piperazin-1-yl)phenyl)ethynyl)pyrazin-2-amine] | 
≤ 100 |  | CC(C)S(=O)(=O)c1ccc(-c2cnc(N)c(C#Cc3cccc4[nH]ncc34)n2)cc1 [Compound I-44, 3-((1H-indazol-4-yl)ethynyl)-5-(4-(isopropylsulfonyl)phenyl)pyrazin-2-amine] | 
≤ 100 |  | CC(C)S(=O)(=O)c1ccc(-c2cnc(N)c(C#Cc3ccc4[nH]ncc4c3)n2)cc1 [Compound I-45, 3-((1H-indazol-5-yl)ethynyl)-5-(4-(isopropylsulfonyl)phenyl)pyrazin-2-amine] | 
 | 30 | CC(C)S(=O)(=O)c1ccc(-c2cnc(N)c(C#Cc3ccccc3CO)n2)cc1 [Compound I-46, (2-((3-amino-6-(4-(isopropylsulfonyl)phenyl)pyrazin-2-yl)ethynyl)phenyl)methanol] | 
≤ 100 |  | Cc1ccc(O)cc1C#Cc1nc(-c2ccc(S(=O)(=O)C(C)C)cc2)cnc1N [Compound I-47, 3-((3-amino-6-(4-(isopropylsulfonyl)phenyl)pyrazin-2-yl)ethynyl)-4-methylphenol] | 
≤ 100 |  | CC(C)S(=O)(=O)c1ccc(-c2cnc(N)c(C#Cc3cc(Cl)cc(CO)c3)n2)cc1 [Compound I-48, (3-((3-amino-6-(4-(isopropylsulfonyl)phenyl)pyrazin-2-yl)ethynyl)-5-chlorophenyl)methanol] | 
≤ 100 |  | CC(C)S(=O)(=O)c1ccc(-c2cnc(N)c(C#Cc3cccc(NC(=O)CN)c3)n2)cc1 [Compound I-49, 2-amino-N-(3-((3-amino-6-(4-(isopropylsulfonyl)phenyl)pyrazin-2-yl)ethynyl)phenyl)acetamide] | 
